The values that follow are results of earlier work, collected in patent US5556638A, “Flurbiprofen-containing immediate-effect medicament and its use” (Alfatec Pharma GMBH, priority 1991, dated 1996).

SMILES strings stand for the structures.

For data set [1] the following is noted: racemate.
For data set [2] the following is noted: prior art.
The next data set deals with pain. Particulars: optical antipodes of flurbiprofen.
For another data set, the system named is inflammation. Particulars: optical antipodes of flurbiprofen.

Take `CC(C(=O)O)c1ccc(-c2ccccc2)c(F)c1` (racemic) [Racemic flurbiprofen]: the undesirable side effects entry in data set [1] was “significant undesirable side effects”. For the same compound, the “time until therapeutic concentrations are achieved” value in data set [2] (racemic flurbiprofen) was 4 to 5 h. Further, the tmax in data set [2] (racemic flurbiprofen, blood level maximum) was 1 to 2 h.
`C[C@@H](C(=O)O)c1ccc(-c2ccccc2)c(F)c1` [R-flurbiprofen]: in the data set on pain, the analgesic action entry was “pronounced analgesic action”.
On to `C[C@H](C(=O)O)c1ccc(-c2ccccc2)c(F)c1` [S-flurbiprofen], for which, in the data set on inflammation, the anti-inflammatory action result is reported as “marked anti-inflammatory action”.
Take `CC(C(=O)O)c1ccc(-c2ccccc2)c(F)c1` (stereo not drawn) [flurbiprofen, 2-(2-fluoro-4-biphenylyl)propionic acid]: the site of absorption entry in data set [2] (oral) is listed as “only absorbed in the upper small intestine”.
